Measured values as given in patent publication US8648205B2, “Metal complexes of N-heterocyclic carbenes” (The University of Akron, priority 2003, dated 2014).
Where “and” joins values, the source holds several entries; their conditions need not be identical. Equal values may be shown once. Entries after “also recorded” stand apart in the source; their conditions may differ.

Experiments:
[1] = stability (air, light, water, chloride, storage)
[2] = system: bladder carcinoma-derived T24 epithelial cell line (ATCC HTB-4); test: In vitro toxicity, propidium iodide flow cytometry; assay type: cell-based
Procedure: A prerequisite for a topical biocide is that it confers acceptable toxicity to the tissue(s) of interest. In vitro toxicity of the compound represented by Formula 202 has been studied using the bladder carcinoma-derived T24 epithelial cell line (ATCC HTB-4). T24 cells were grown in RPMI 1640 medium available from Life Technologies (Carlsbad, Calif.) supplemented with 10% fetal bovine serum available from Sigma (St. Louis, Mo.), seeded into 24-well plates, and grown to confluence over 48 hours. Cells were washed with sterile phosphate buffered saline (PBS) and fresh warmed medium was added, either alone or containing the compound represented by Formula 202 (added to the medium at the start of the experiment to minimize premature liberation of Ag^+ from the compound represented by Formula 202) at concentrations between 5 and 50 μg/mL. After incubation for 1 to 2 hours, cells were released by treatment with 0.05% trypsin-0.02% EDTA, suspended in sorting buffer, stained with propidium iodide, and subjected to flow cytometry on a FACS Calibur instrument available from Becton Dickinson (Piscataway, N.J.).

panel of E. coli = test: MIC for a panel of E. coli (UTI strains), 96-well plate; conditions: Escherichia coli, 16 h
physchem = conditions: water
[3] = LD50 in rats, preliminary studies; conditions: rat, in vivo, imidazolium cation portion
From the text: The imidazolium salt 1,3,9-trimethyl-7-(2,3-dihyroxypropyl)xanthinium iodide represented by Formula 201 is obtained by reacting 7-(2,3-dihydroxypropyl)theophylline (Formula 200) with methyl iodide in dimethylformamide. The imidazolium salt represented by Formula 201 reacts with silver acetate in methanol to yield the N-heterocyclic carbene silver(I) acetate complex (Formula 202), which is a white solid in 34% yield (structure confirmed by X-ray crystallography). The compound represented by Formula 202 is water soluble (Ksp=82 mg/mL) and is stable for at least 7 days in water by NMR. As the compound represented by Formula 202 decomposes to release Ag^+ thereby regenerating the cationic portion of the compound of Formula 201. The imidazolium cation portion of the compound represented by Formula 201 has an LD50 in rats of >2.0 g/kg in preliminary studies.

rats = test: Toxicity studies with rats, clearance by mass spectroscopy of the urine; assay type: in vivo
solubility = conditions: 37: bromide salt; 20a, 20b: bromide salts
[4] = system: E. coli, P. aeruginosa, S. aureus; test: MIC test in aqueous LB broth, summary of Table 5; assay type: cell-based
E. coli (ATCC 8739) = test: MIC test in LB broth comparing AgNO3 and complex 106; assay type: cell-based; parameters: key: +=growth; −=no growth
[5] = system: P. aeruginosa (ATCC 9027); test: as above; assay type: cell-based; parameters: key: +=growth; −=no growth
S. aureus (ATCC 6538) = test: as above; assay type: cell-based; parameters: key: +=growth; −=no growth
Staphylococcus aureus = assay type: cell-based
Procedure: (§1) In this test, a filter paper disc of 6 mm diameter was soaked with 20 μL of a silver compound of known concentration, and placed over a lawn of an organism in the agar plate. The diameter of the area in which growth of the organism is inhibited by the test solution was measured after an over night incubation as a measure of the relative antimicrobial activity of the silver compounds. The test organisms were Escherichia coli, Staphylococcus aureus, and Pseudomonas aeruginosa.

Pseudomonas aeruginosa = assay type: cell-based
Procedure: as §1

Escherichia coli = assay type: cell-based
Procedure: as §1

[6] = system: Escherichia coli, Staphylococcus aureus, and Pseudomonas aeruginosa; conditions: supernatants, less silver chloride
[7] = system: Escherichia coli, Staphylococcus aureus, and Pseudomonas aeruginosa; test: agar plates overlay method, summary of Table 2; assay type: cell-based
Procedure: as §1, with “The usefulness of the compounds represented by Formulas 103 and 55 as antimicrobial agents was evaluated. In” for “In”

[8] = system: S. aureus, P. aeruginosa, and E. coli; test: filter disk test and standard MIC technique; assay type: cell-based
[9] = Day 1, 1DF: AgNO3 1731.18, 106 1675.74 μg/mL
[10] = Day 1, 2DF: AgNO3 865.59, 106 837.87 μg/mL
[11] = Day 1, 3DF: AgNO3 432.79, 106 418.94 μg/mL
[12] = Day 1, 4DF: AgNO3 216.40, 106 209.47 μg/mL
[13] = Day 1, undiluted: AgNO3 0.50 wt/V % (3462.35 μg/mL), 106 1.38 wt/V % (3341.48 μg/mL)
[14] = Day 2, 1DF: AgNO3 1731.18, 106 1675.74 μg/mL
[15] = Day 2, 2DF: AgNO3 865.59, 106 837.87 μg/mL
[16] = Day 2, 3DF: AgNO3 432.79, 106 418.94 μg/mL
[17] = Day 2, 4DF: AgNO3 216.40, 106 209.47 μg/mL
[18] = Day 2, undiluted: AgNO3 0.50 wt/V % (3462.35 μg/mL), 106 1.38 wt/V % (3341.48 μg/mL)

CC(=O)[O][Ag][CH]1N(C)c2c(c(=O)n(C)c(=O)n2C)N1CC(O)CO (centres unmarked) [Formula 202]
shelf life ([1]; room temperature): several months | stable in solid form ([1]; solid form): a couple months | stable in water by NMR ([1]; water): at least 7 days | loss of viability ([2]; 1 h of treatment at 5 μg/mL): ~5% | loss of viability ([2]; 2 hours of treatment at 5 μg/mL): approximately 11% | MIC (panel of E. coli): 2 to 4 mg/L | solubility (physchem): 82 mg/mL

CN1CN(CC(O)CO)c2c1n(C)c(=O)n(C)c2=O (centres unmarked) [Formula 201]
LD50 [3]: > 2000 mg/kg

OCC[n+]1ccn(Cc2cccc(Cn3cc[n+](CCO)c3)n2)c1.[Br-].[Br-] [Formula 19a]
toxicity (rats): low toxicity | clearance through the kidneys (rats; mass spectroscopy of the urine): clears within two days

OC1(O)CN2C=CN3Cc4cccc(n4)CN4C=CN(C1)[CH]4[Ag+][CH]1N4C=CN1CC(O)(O)CN1C=CN(Cc5cccc(n5)C4)[CH]1[Ag][CH]32 [Complex 106]
solubility in water / aqueous media (solubility): sparingly soluble in water | stability in air and light [1]: air and light stable | stability in water ([1]; 37: bromide salt, 20a, 20b: bromide salts): quick decomposition | antimicrobial activity of the aqueous form, fold less effective than 0.5% AgNO3 ([4]; about the same amount of silver): 2 fold | MIC ([4]; after 48 hrs of incubation, read-out: MIC concentration): 838 mg/L | growth / no growth (E. coli (ATCC 8739); [9]): − | growth / no growth (E. coli (ATCC 8739); [10]): − | growth / no growth (E. coli (ATCC 8739); [11]): − | growth / no growth (E. coli (ATCC 8739); [12]): − | growth / no growth (E. coli (ATCC 8739); [13]): − | growth / no growth (E. coli (ATCC 8739); [14]): − | growth / no growth (E. coli (ATCC 8739); [15]): − | growth / no growth (E. coli (ATCC 8739); [16]): + | growth / no growth (E. coli (ATCC 8739); [17]): + | growth / no growth (E. coli (ATCC 8739); [18]): − | growth / no growth [5, 9]: − | growth / no growth [5, 10]: − | growth / no growth [5, 11]: − | growth / no growth [5, 12]: − | growth / no growth [5, 13]: − | growth / no growth [5, 14]: − | growth / no growth [5, 15]: − | growth / no growth [5, 16]: + | growth / no growth [5, 17]: + | growth / no growth [5, 18]: − | growth / no growth (S. aureus (ATCC 6538); [9]): − | growth / no growth (S. aureus (ATCC 6538); [10]): − | growth / no growth (S. aureus (ATCC 6538); [11]): − | growth / no growth (S. aureus (ATCC 6538); [12]): − | growth / no growth (S. aureus (ATCC 6538); [13]): − | growth / no growth (S. aureus (ATCC 6538); [14]): − | growth / no growth (S. aureus (ATCC 6538); [15]): − | growth / no growth (S. aureus (ATCC 6538); [16]): + | growth / no growth (S. aureus (ATCC 6538); [17]): + | growth / no growth (S. aureus (ATCC 6538); [18]): −

F[P-](F)(F)(F)(F)F.F[P-](F)(F)(F)(F)F.OCCn1cc[n+]2[c]1[Ag-][c]1n(CCO)cc[n+]1Cc1cccc(n1)C[n+]1ccn(CCO)[c]1[Ag-][c]1n(CCO)cc[n+]1Cc1cccc(n1)C2 [Compound 105]
solubility in water / aqueous media (solubility): is not; also recorded: soluble in aqueous media | Diameter of Inhibited Area (Staphylococcus aureus): 9 mm and 10.67 mm | Diameter of Inhibited Area (Pseudomonas aeruginosa): 12 mm and 10.25 mm | Diameter of Inhibited Area (Escherichia coli): 10 mm and 11.58 mm | antimicrobial activity compared with silver nitrate (Table 3 summary) [6]: better antimicrobial activity than silver nitrate | antimicrobial properties (Table 2 summary) [7]: comparable to silver nitrate

CC(=O)[O][Ag][CH]1N(C)c2c(n(C)c(=O)n(C)c2=O)N1C (centres unmarked) [Formula 100]
stability in air and light [1]: air stable | antimicrobial activity [8]: effective antimicrobial activity
